The supplement of paper PMC10307832

Experiments:
Assay in all cases: relative viability (nuclei count vs DMSO), 5 days (fraction); higher = more cells survive
[1] = compound: C1=CC=C2C(=C1)N=C(S2)C(C#N)C3=NC(=NC=C3)NCCC4=CN=CC=C4 + COc1cc2c(Oc3ccc(NC(=O)C4(C(=O)Nc5ccc(F)cc5)CC4)cc3F)ccnc2cc1OCCCN1CCOCC1 [Foretinib] (partner 0.25 µM)
Outline: (§1)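 Values are medians from duplicate plates. Each reflects relative viability, defined as the nuclei count of treated wells over that of vehicle wells. Lung cancer cell lines in 1536-well plates were pin-tool dosed one day after seeding with one drug alone or with a fixed anchor-drug dose plus five library-drug doses (not always all listed) in √10 steps, then fixed, stained and imaged at 4× after 5 days.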

[2] = compound: COc1cc(N2CCC(N3CCN(C)CC3)CC2)ccc1Nc1ncc(Cl)c(Nc2ccccc2S(=O)(=O)C(C)C)n1 [NVP-TAE684] + Cc1nc(Nc2ncc(C(=O)Nc3c(C)cccc3Cl)s2)cc(N2CCN(CCO)CC2)n1 [Dasatinib] (partner 0.075 µM)
Outline: as §1

[3] = compound: COc1cc2/c(=N/c3ccc(Br)cc3F)nc[nH]c2cc1OCC1CCN(C)CC1 [Vandetanib] + Cc1nc(NC(=O)N2CCC[C@H]2C(N)=O)sc1-c1ccnc(C(C)(C)C(F)(F)F)c1 [Alpelisib] (partner 2 µM)
Outline: as §1

[4] = compound: COc1cc2/c(=N/c3ccc(Br)cc3F)nc[nH]c2cc1OCC1CCN(C)CC1 [Vandetanib] + N=C(N)NC(=N)NCCc1ccccc1 [Phenformin] (partner 250 µM)
Outline: as §1

Row | Cell Line | relative viability ([1]; first compound 0.005 µM) | relative viability ([1]; first compound 0.01581 µM) | relative viability ([1]; first compound 0.05 µM) | relative viability ([1]; first compound 0.1581 µM) | relative viability ([1]; first compound 0.5 µM) | relative viability ([2]; first compound 0.2 µM) | relative viability ([2]; first compound 0.6325 µM) | relative viability ([2]; first compound 2 µM) | relative viability ([3]; first compound 0.02 µM) | relative viability ([3]; first compound 0.06325 µM) | relative viability ([3]; first compound 0.2 µM) | relative viability ([3]; first compound 0.6325 µM) | relative viability ([3]; first compound 2 µM) | relative viability ([4]; first compound 0.02 µM) | relative viability ([4]; first compound 0.06325 µM) | relative viability ([4]; first compound 0.2 µM) | relative viability ([4]; first compound 0.6325 µM) | relative viability ([4]; first compound 2 µM)
1 | LCLC-103H | 0.801 | 0.8 | 0.894 | 0.828 | 0.737 | 0.568 | 0.464 | 0.168 | 0.923 | 0.898 | 0.983 | 0.972 | 0.943 | 0.316 | 0.319 | 0.357 | 0.344 | 0.31
2 | LK-2 | 1.21 | 1.21 | 1.29 | 1.06 | 1.64 | 0.236 | 0.243 | 0.185 | 0.951 | 1.04 | 1.11 | 1.16 | 1.11 | 0.381 | 0.5 | 0.419 | 0.444 | 0.408
3 | NCI-H522 | – | – | – | – | – | 1.09 | 0.983 | 0.737 | – | – | – | – | – | 0.691 | 0.623 | 0.66 | 0.585 | 0.712
4 | NCI-H1299 | 1.1 | 1.1 | 1.05 | 1.09 | 1.09 | – | – | – | 0.956 | 0.997 | 1.07 | 1.09 | 1.04 | – | – | – | – | –
5 | NCI-H1623 | 0.9 | 0.858 | 0.769 | 0.888 | 0.819 | 0.514 | 0.502 | 0.439 | – | – | – | – | – | 0.574 | 0.525 | 0.574 | 0.526 | 0.622
6 | NCI-H1650 | 1.02 | 1.38 | 0.919 | 1.55 | 0.787 | 0.378 | 0.19 | 0.137 | – | – | – | – | – | 0.409 | 0.332 | 0.251 | 0.329 | 0.321
7 | NCI-H1703 | 0.391 | 0.37 | 0.381 | 0.318 | 0.336 | – | – | – | 0.306 | – | 0.347 | 0.284 | 0.222 | – | – | – | – | –
8 | NCI-H1792 | – | – | – | – | – | 0.623 | 0.76 | 0.25 | 0.676 | 0.672 | 0.694 | 0.705 | 0.565 | 0.298 | 0.236 | 0.184 | 0.254 | 0.175
9 | NCI-H2342 | 0.926 | 1.17 | 0.997 | 1.04 | 1.17 | 0.297 | 0.277 | 0.292 | – | – | – | – | – | 0.596 | 0.496 | 0.592 | 0.576 | 0.477
10 | SW 900 | 0.63 | 0.714 | 0.704 | 1.02 | 0.985 | 0.739 | 0.414 | 0.397 | – | – | – | – | – | 0.635 | 0.657 | 0.197 | 0.474 | 0.434
